Assay results as given in paper PMC4494771, “Synthesis, structure, and biological activity of novel heterocyclic sulfonyl-carboximidamides” (Monatshefte Fur Chemie, 2013).
Values after ≈ are worked out from the molar mass of the structure shown. Where two headings read alike, the source gives them in different places.

What was measured:
[1] = test system: P. acnes ATCC 11827; test: Antibacterial activity, MIC in broth serial dilution; conditions: for MIC: Cutibacterium acnes, ATCC11827, 72 h, read-out: MIC P. acnes, P. acnes ATCC 11827, 72 h anaerobic
Description: Compounds were tested at serial dilutions in bacterial broth starting at 100 μg/cm^3 (final concentration). P. acnes (ATCC 11827, lot 419697) was grown in thioglycollate nutrient broth (Hardy Diagnostics K29) for 72 h at 33 °C, then inoculated at the density equivalent to 0.5 McFarland standard and incubated with the test materials for another 72 h in an anaerobic environment. […] At the end of the incubation the MIC was assessed optically as the lowest concentration of a test material which caused no bacteria growth [34]. This optical assessment was further confirmed by measuring the absorbance at 655 nm with the BioRad 3550-UV microplate reader. The MIC was defined as at least 50 % inhibition of the increase of OD.

[2] = test system: panel of 60 human tumor cell lines; test: NCI-60 DTP human tumor cell line screening, whole panel; conditions: 10 μM, mean of growth percent for all tested cell lines
[3] = test system: MALME-3M; test: NCI-60 DTP human tumor cell line screening; type: cell-based; conditions: Homo sapiens; one dose 10 μM, Melanoma MALME-3M; read-out: Growth inhibition ΔGI
[4] = test system: A498; test: NCI-60 DTP human tumor cell line screening; type: cell-based; conditions: Homo sapiens; one dose 10 μM, Renal cancer A498; read-out: Growth inhibition ΔGI
[5] = test system: UO-31; test: NCI-60 DTP human tumor cell line screening; type: cell-based; conditions: for inhibition at 10 µM: Homo sapiens
[6] = test system: neonatal human dermal fibroblasts (ATCC PCS-201-010); test: Cytotoxic activity, fibroblast proliferation (sulforhodamine B); type: cell-based; conditions: for cytotoxic activity on fibroblast proliferation: 96 h, 6.25–100 μg/cm^3
Description: Passage for normal neonatal human dermal fibroblasts (ATCC PCS-201-010, lot 58243223) were grown in DMEM with 5 % calf serum (Hyclone). For the experiment, cells were plated in DMEM/5 % serum at 2,000 cells/well in 96 well plates (plate 598) and were exposed to test materials for 96 h. MAP and bFGF were used as the positive controls and water, 1, 0.5, and 0.25 % DMSO were used as the negative controls. Plate growth was stopped and cells were stained with a sulforhodamine B dye. The dye was then dissolved and a colorimetric signal proportional to total cell/protein count was quantified with the BioRad microplate spectrophotometer 3550-UV at 570 nm with background subtraction at 660 nm and analyzed with Microplate Manager v.2 software for Macintosh (BioRad). Error bars represent standard errors of the mean (SEM). P values representing statistical significance were calculated using the t test.

[7] = test system: M. tuberculosis sp. 192; test: Tuberculostatic activity, classical test-tube method of successive dilution; type: cell-based; conditions: Mycobacterium tuberculosis; sp. 192, fully sensitive wild strain
[8] = test system: Mycobacterium tuberculosis H37Rv strain; test: as above; type: cell-based
[9] = test system: Mycobacterium tuberculosis H37Rv, sp. 210 and sp. 192; test: Tuberculostatic activity, three tested strains together; type: cell-based
[10] = test system: HOP-92; test: NCI-60 DTP human tumor cell line screening; type: cell-based; conditions: Homo sapiens; one dose 10 μM, Non-small cell lung cancer HOP-92; read-out: Growth inhibition ΔGI
[11] = test system: NCI-H522; test: NCI-60 DTP human tumor cell line screening; type: cell-based; conditions: Homo sapiens; one dose 10 μM, Non-small cell lung cancer NCI-H522; read-out: Growth inhibition ΔGI
[12] = test system: SNB-75; test: NCI-60 DTP human tumor cell line screening; type: cell-based; conditions: Homo sapiens; one dose 10 μM, CNS cancer SNB-75; read-out: Growth inhibition ΔGI
[13] = UO-31, one dose 10 μM, Renal cancer UO-31, read-out: Growth inhibition ΔGI

SMILES: N/C(=N\S(=O)(=O)c1ccccc1Cl)c1cccnc1 [Compound 3, (Z)-N′-[(2-Chlorophenyl)sulfonyl]-3-pyridinecarboximidamide]
- melting point: 188 to 190 °C
- MIC [1]: > 100 mg/L

SMILES: NC(=NS(=O)(=O)c1cnccc1Cl)c1ccc2ccccc2n1 [Compound 16, N′-[(4-Chloropyridin-3-yl)sulfonyl]quinoline-2-carboximidamide]
- MIC [1]: > 100 mg/L

SMILES: NC(=NS(=O)(=O)c1ccccc1Cl)c1cnccn1 [Compound 9, N′-[(2-Chlorophenyl)sulfonyl]pyrazine-2-carboximidamide]
- melting point: 173 to 174 °C
- MIC [1]: > 100 mg/L

SMILES: N/C(=N\S(=O)(=O)c1cnccc1Cl)c1cccnc1 [Compound 4, (Z)-N′-[(4-Chloropyridin-3-yl)sulfonyl]-3-pyridinecarboximidamide]
- Growth percent mean values (MG_MID) [2]: 104.8%
- inhibition at 10 µM [3]: 20%
- inhibition at 10 µM [4]: 24.1%
- MIC [1]: > 100 mg/L

SMILES: NC(=NS(=O)(=O)c1cnccc1Cl)c1ccccn1 [Compound 2, N′-[(4-Chloropyridin-3-yl)sulfonyl]-2-pyridinecarboximidamide]
- Growth percent mean values (MG_MID) [2]: 98.2%
- inhibition at 10 µM ([5]; UO-31, read-out: Growth inhibition ΔGI): 20.4%
- cytotoxic activity on fibroblast proliferation [6]: no cytotoxic activity
- MIC [7]: 50 mg/L (≈ 168 µM)
- MIC [8]: 50 mg/L (≈ 168 µM)

SMILES: NNC(=O)c1ccncc1 [INH, isoniazid, reference compound]
- MIC [9]: 0.5 to 1 mg/L (≈ 3.65 to 7.29 µM)
- MIC [7]: 0.5 mg/L (≈ 3.65 µM)
- MIC [8]: 0.5 mg/L (≈ 3.65 µM)

SMILES: NC(=NS(=O)(=O)c1ccccc1Cl)c1ncccn1 [Compound 7, N′-[(2-Chlorophenyl)sulfonyl]pyrimidine-2-carboximidamide]
- Growth percent mean values (MG_MID) [2]: 103.0%
- inhibition at 10 µM [5, 13]: 19.4%
- MIC [7]: 50 mg/L (≈ 168 µM)
- MIC [1]: > 100 mg/L
- MIC [8]: 50 mg/L (≈ 168 µM)

SMILES: NC(=NS(=O)(=O)c1cnccc1Cl)c1ccncc1 [Compound 6, N′-[(4-Chloropyridin-3-yl)sulfonyl]-4-pyridinecarboximidamide]
- melting point: 215 to 218 °C
- MIC [1]: > 100 mg/L

SMILES: NC(=NS(=O)(=O)c1cnccc1Cl)c1cncc(Cl)n1 [Compound 12, 6-Chloro-N′-[(4-chloropyridin-3-yl)sulfonyl]pyrazine-2-carboximidamide]
- Growth percent mean values (MG_MID) [2]: 97.8%
- inhibition at 10 µM [10]: 25.9%
- inhibition at 10 µM [11]: 143%
- MIC [1]: > 100 mg/L

SMILES: COc1cncc(C(N)=NS(=O)(=O)c2ccccc2Cl)n1 [Compound 13, N′-(2-Chlorophenylsulfonyl)-6-methoxypyrazine-2-carboximidamide]
- melting point: 227 to 230 °C
- MIC [1]: > 100 mg/L

SMILES: NC(=NS(=O)(=O)c1ccccc1Cl)c1ccncc1 [Compound 5, N′-[(2-Chlorophenyl)sulfonyl]-4-pyridinecarboximidamide]
- melting point: 182 to 185 °C
- MIC [1]: > 100 mg/L

SMILES: NC(=NS(=O)(=O)c1ccccc1Cl)c1ccccn1 [Compound 1, N′-[(2-Chlorophenyl)sulfonyl]-2-pyridinecarboximidamide]
- melting point: 140 to 142 °C
- growth inhibitory activity ([6]; 100 μg/cm^3): 88%
- cytotoxic effect ([6]; 6.25–12.5 μg/cm^3): no cytotoxic effect was evident
- cytotoxic activity on fibroblast proliferation [6]: weak inhibitory activity
- MIC [1]: 12.5 to 50 mg/L (≈ 42.3 to 169 µM)
- MIC P. acnes ([1]; P. acnes ATCC 11827, 72 h anaerobic): 25 mg/L (≈ 84.5 µM)

SMILES: NC(=NS(=O)(=O)c1ccccc1Cl)c1cncc(Cl)n1 [Compound 11, 6-Chloro-N′-(2-chlorophenylsulfonyl)pyrazine-2-carboximidamide]
- Growth percent mean values (MG_MID) [2]: 102.1%
- inhibition at 10 µM [5, 13]: 19.4 to 21.1%
- Growth inhibition ΔGI ([5]; one dose 10 μM, Renal cancer UO-31): 22.6%
- inhibition at 10 µM [3]: 22.6%
- MIC [1]: > 100 mg/L

SMILES: NC(=NS(=O)(=O)c1cnccc1Cl)c1ncccn1 [Compound 8, N′-[(4-Chloropyridin-3-yl)sulfonyl]pyrimidine-2-carboximidamide]
- melting point: 162 to 163 °C
- MIC [7]: 50 mg/L (≈ 168 µM)
- MIC [1]: > 100 mg/L
- MIC [8]: 50 mg/L (≈ 168 µM)

SMILES: COc1cncc(C(N)=NS(=O)(=O)c2cnccc2Cl)n1 [Compound 14, N′-[(4-Chloropyridin-3-yl)sulfonyl]-6-methoxypyrazine-2-carboximidamide]
- melting point: 265 to 270 °C (dec.)
- MIC [1]: > 100 mg/L

SMILES: NC(=NS(=O)(=O)c1cnccc1Cl)c1cnccn1 [Compound 10, N′-[(4-Chloropyridin-3-yl)sulfonyl]pyrazine-2-carboximidamide]
- Growth percent mean values (MG_MID) [2]: 101.9%
- MIC [7]: 25 mg/L (≈ 84 µM)
- MIC [1]: > 100 mg/L
- inhibition at 10 µM [12]: 19.3%
- MIC [8]: 50 mg/L (≈ 168 µM)
